Test results reported in patent US20120252730A1, “PLATELET AGGREGATION INHIBITORS” (UNIVERSITY OF CHICAGO, priority 2009, published 2012).
Ends that are not written are not given here.

What was measured:
αIIbβ3 CHO K1 cells [1] = experiment: Ac-GXGDSC peptide array cell adhesion, αIIbβ3 CHO K1 cells; type: cell-based, human; settings: 0.5% peptide spots; 300 μM cRGDFG
Protocol: Cysteine-terminated peptides were immobilized onto maleimide-presenting SAMs by adding 40 μL of 1 mM peptide solution to the biochip and incubating at 37° C. for 1 hour. Substrates were rinsed with DIUF water and ethanol and dried under a stream of nitrogen. αIIbβ3 CHO K1 cells were detached from culture plates with 1 mM EGTA/2 mM EDTA in PBS (phosphate-buffered saline), rinsed with serum-free F-12K medium, centrifuged and resuspended in serum-free F-12K medium supplemented with cRGDFG (SEQ ID NO: 12) (300 μM) and 1× penicillin/streptomycin. After 15-minute of incubation, cells (200,000/mL) were added to substrates in 24-well culture plates. After 2 hour incubation at 37° C. and 5% CO2, media was exchanged for F-12K medium supplemented with 10% FBS, 1× penicillin/streptomycin and cRGDFG (SEQ ID NO: 12) (300 μM). After 2 hours, the substrates were washed gently with warm PBS, and adherent cells were immediately fixed with 4% formaldehyde for 30 minutes, visualized with a 20× objective of a Zeiss Axiovert 200 inverted microscope, and photographed. For cell adhesion assays mediated by Ac-GXGDSC (SEQ ID NO: 26), αIIbβ3 CHO K1 cells were incubated on a 5×4 circle (1 mm diameter) array for 1 hour with serum-free F-12K medium supplemented with cRGDFG (SEQ ID NO: 12) (300 μM) and 1× penicillin/streptomycin, followed by media exchange to F-12K medium supplemented with 10% FBS, 1× penicillin/streptomycin and cRGDFG (SEQ ID NO: 12) (300 μM. The substrates were washed with warm PBS, and adherent cells were immediately fixed and permeabilized with 4% formaldehyde and 0.5% Triton-X for 30 minutes. Fixed cells were stained with DAPI, visualized and photographed with a 20× objective as described. The number of adherent cells per field of view was counted using Image J software. Cells were counted in at least three fields for each circle, and each experiment was repeated 3 times. The degree of adhesion is reported as a percentage of cells that adhere relative to control experiments with the peptide Ac-GRGDSC (SEQ ID NO: 28).
To further assay the binding of peptide ligands to the […] integrin for XGD peptide ligands, an array was used to assess the adhesion of cells to peptides having the arginine residue substituted with each amino acid other than cysteine (e.g., A, D, E, F, G, H, I, K, L, M, N, P, Q, R, S, T, V, W, and Y). The library of Ac-GXGDSC (SEQ ID NO: 26) peptides was synthesized and immobilized in an array with each peptide occupying a 1 mm diameter region of the monolayer (FIG. 61). A suspension of αIIbβ3 CHO K1 cells was applied to the entire array and cells were allowed to attach to regions presenting the various peptides. The substrates were then rinsed and stained with DAPI, and the cells were counted to determine the relative efficiency of cell attachment to peptides in the library. […] Substitution with leucine and isoleucine were also active, though at a lower level.

BHK 21 cells = experiment: Ac-GXGDSC peptide array cell adhesion, BHK 21 cells; type: cell-based
HT1080 cells = experiment: Ac-GXGDSC peptide array cell adhesion, HT1080 cells; type: cell-based
CHO-K1 cells = experiment: Ac-GXGDSC peptide array cell adhesion, CHO K1 cells; type: cell-based
Protocol: Cysteine-terminated peptides were immobilized onto maleimide-presenting SAMs by adding 40 μL of 1 mM peptide solution to the biochip and incubating at 37° C. for 1 hour. Substrates were rinsed with DIUF water and ethanol and dried under a stream of nitrogen. αIIbβ3 CHO K1 cells were detached from culture plates with 1 mM EGTA/2 mM EDTA in PBS (phosphate-buffered saline), rinsed with serum-free F-12K medium, centrifuged and resuspended in serum-free F-12K medium supplemented with cRGDFG (SEQ ID NO: 12) (300 μM) and 1× penicillin/streptomycin. After 15-minute of incubation, cells (200,000/mL) were added to substrates in 24-well culture plates. After 2 hour incubation at 37° C. and 5% CO2, media was exchanged for F-12K medium supplemented with 10% FBS, 1× penicillin/streptomycin and cRGDFG (SEQ ID NO: 12) (300 μM). After 2 hours, the substrates were washed gently with warm PBS, and adherent cells were immediately fixed with 4% formaldehyde for 30 minutes, visualized with a 20× objective of a Zeiss Axiovert 200 inverted microscope, and photographed. […] The number of adherent cells per field of view was counted using Image J software. Cells were counted in at least three fields for each circle, and each experiment was repeated 3 times. […]

αIIbβ3 CHO K1 cells [2] = experiment: Cell adhesion assay: αIIbβ3 CHO K1 cells on SAMs presenting immobilized peptides; type: cell-based, human; settings: 0.5% peptide SAM; in presence of 300 μM cRGDFG
αIIbβ3 CHO K1 cells [3] = experiment: Immunostaining of cytoskeletal structure of αIIbβ3 CHO K1 cells adherent to model substrates; type: cell-based, human; settings: monolayers presenting the peptide; four hours; anti-vinculin, phalloidin, DAPI
Description: αIIbβ3 CHO K1 cells were allowed to adhere and spread on substrates as described above. Substrates were washed gently with PBS, and fixed and permeabilized as described above. Cells were stained with monoclonal anti-vinculin IgG to visualize focal adhesions, phalloidin to visualize stress fibers and DAPI to visualize the nucleus. Substrates were rinsed thoroughly with PBS and mounted on microscope slides with Aqua Poly/Mount (PolySciences Inc.). Substrates were visualized with a 100× objective of a Zeiss Axiovert 200 inverted microscope, and photographed.
The assembly of focal adhesion and actin stress fibers of αIIbβ3 CHO K1 cells adhered to monolayers presenting GRGDSC (SEQ ID NO: 11), HHLGGAKQAGDVC (SEQ ID NO: 21) a mixture of both peptides, and adsorbed Fbg (FIGS. 3, E, F, G and H respectively) was compared. The αIIbβ3 CHO K1 cells were allowed to attach and spread on the monolayers for four hours, and then fixed the cells and probed with anti-vinculin IgG to visualize focal adhesions and with phalloidin-AF 488 to visualize actin stress fibers.

platelets [4] = settings: cited from earlier work
αIIbβ3 = biological target: T1, αIIbβ3 (Homo sapiens, UniProt P05106+P08514); settings: cited from earlier work
T1 construct: host or cells: platelets

platelets [5] = settings: cited from earlier work; remark: listed apart in the source
αIIbβ3 CHO K1 cells [6] = experiment: Blocking of αIIbβ3 CHO K1 cell adhesion to GRGDSC monolayer; type: cell-based, human; settings: 300 μM
Description: (§1) FIG. 2 depicts the results of FACS analyses and binding studies of a αIIbβ3 expressing CHO K1 cell line. […] Transfected αIIbβ3 CHO K1 cells express αIIbβ3 at the cell surface, as detected by anti-β3 and PAC-1 antibody (bottom) (the middle and right hand lanes show anti-β3 antibody and PAC-1 antibody binding, respectively). Panel B is a graph of the concentration of cRGDFG (SEQ ID NO: 12; where F is a D amino acid) versus adhesion of αIIbβ3 CHO K1 cells. The peptide cRGDFG (SEQ ID NO: 12), a cyclic peptide that specifically binds to α5 and αV integrins, inhibits CHO K1 cell adhesion to 0.5% GRGDSC (SEQ ID NO: 11) SAMs. Panels C-F are photomicrographs of cells adhering to GRGDSC (SEQ ID NO: 11).
(§2) CHO K1 cells were used that were transfected with the αIIbβ3 receptor, as described previously (Salsmann et al., 2005). Cells were transfected with pcDNA3.1 vectors that coded for αIIb and β3 using FuGENE6 and analyzed by FACS after labeling with the PAC-1 (anti-αIIbβ3) and H-96 (anti-β3) antibodies. Approximately 30% of the cells expressed the receptor (FIG. 2A). Because the CHO K1 cells also express αv and α5 integrins on their surfaces, adhesion experiments were performed in the presence of the cyclic peptide cRGDFG (SEQ ID NO: 12), where F is a D amino acid. […] All experiments that follow, unless stated otherwise, were performed in the presence of 300 μM cRGDFG (SEQ ID NO: 12).

αvβ3 = αvβ3 (Homo sapiens, UniProt P05106+P06756); settings: cited from earlier work
CHO K1 cells = experiment: Blocking of CHO K1 cell attachment to GRGDSC monolayer; type: cell-based; settings: 300 μM
Description: as §1, §2

Chain of αvβ3 (P06756 31-889 limits assumed): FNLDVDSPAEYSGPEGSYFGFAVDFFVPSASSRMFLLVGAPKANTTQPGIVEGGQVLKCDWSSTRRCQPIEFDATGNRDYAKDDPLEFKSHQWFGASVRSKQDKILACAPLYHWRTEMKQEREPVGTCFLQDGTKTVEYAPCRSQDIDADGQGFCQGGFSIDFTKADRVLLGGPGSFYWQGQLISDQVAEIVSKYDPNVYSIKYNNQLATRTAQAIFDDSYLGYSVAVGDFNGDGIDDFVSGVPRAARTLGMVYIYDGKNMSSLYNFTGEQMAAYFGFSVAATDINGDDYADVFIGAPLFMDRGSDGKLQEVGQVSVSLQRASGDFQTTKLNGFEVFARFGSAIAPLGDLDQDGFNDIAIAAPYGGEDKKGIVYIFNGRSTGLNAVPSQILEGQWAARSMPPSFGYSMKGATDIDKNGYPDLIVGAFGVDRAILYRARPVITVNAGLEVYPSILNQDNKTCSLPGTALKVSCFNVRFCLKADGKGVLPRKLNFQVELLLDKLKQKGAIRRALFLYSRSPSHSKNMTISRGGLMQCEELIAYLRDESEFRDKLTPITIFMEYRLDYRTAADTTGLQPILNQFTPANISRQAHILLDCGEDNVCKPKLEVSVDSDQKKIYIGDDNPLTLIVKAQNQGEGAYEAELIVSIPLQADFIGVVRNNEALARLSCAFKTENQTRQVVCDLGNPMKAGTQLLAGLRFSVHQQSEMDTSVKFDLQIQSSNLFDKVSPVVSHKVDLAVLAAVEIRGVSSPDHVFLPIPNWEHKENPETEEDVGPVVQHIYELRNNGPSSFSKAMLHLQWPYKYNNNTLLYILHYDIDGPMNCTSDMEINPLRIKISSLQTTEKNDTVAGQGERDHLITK
Chain of αvβ3 (P06756 891-1048 partner limits assumed): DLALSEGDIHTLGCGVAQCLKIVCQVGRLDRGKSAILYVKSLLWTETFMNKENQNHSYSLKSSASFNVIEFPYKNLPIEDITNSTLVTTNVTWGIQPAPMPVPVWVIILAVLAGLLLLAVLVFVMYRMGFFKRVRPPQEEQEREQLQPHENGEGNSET
Chain of αvβ3 (P05106 27-788): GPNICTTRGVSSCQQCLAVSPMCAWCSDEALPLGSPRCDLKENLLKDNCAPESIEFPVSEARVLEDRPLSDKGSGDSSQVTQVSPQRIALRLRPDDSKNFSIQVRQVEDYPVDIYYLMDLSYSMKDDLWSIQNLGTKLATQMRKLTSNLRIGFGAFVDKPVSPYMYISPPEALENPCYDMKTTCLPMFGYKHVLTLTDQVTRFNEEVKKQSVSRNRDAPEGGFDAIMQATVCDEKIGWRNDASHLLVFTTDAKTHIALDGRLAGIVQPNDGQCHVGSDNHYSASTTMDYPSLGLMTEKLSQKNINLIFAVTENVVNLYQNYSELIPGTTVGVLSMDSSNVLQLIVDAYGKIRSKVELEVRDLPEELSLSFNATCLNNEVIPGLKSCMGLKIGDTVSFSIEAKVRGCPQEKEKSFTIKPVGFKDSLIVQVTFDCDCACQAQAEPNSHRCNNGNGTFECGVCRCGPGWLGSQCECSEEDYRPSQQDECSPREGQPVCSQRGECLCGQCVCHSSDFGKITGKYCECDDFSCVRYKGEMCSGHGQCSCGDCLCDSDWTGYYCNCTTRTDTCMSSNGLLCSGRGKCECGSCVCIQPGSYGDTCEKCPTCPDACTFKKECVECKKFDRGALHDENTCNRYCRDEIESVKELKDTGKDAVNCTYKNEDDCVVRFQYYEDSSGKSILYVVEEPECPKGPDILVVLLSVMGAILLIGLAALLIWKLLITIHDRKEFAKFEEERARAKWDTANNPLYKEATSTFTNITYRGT

Substance: Ac-GRGDSC (Ac-GRGDSC-NH2)
- cell adhesion on Ac-GXGDSC array relative to Ac-GRGDSC (αIIbβ3 CHO K1 cells [1]): mediated αIIbβ3 CHO K1 cell adhesion
- cell adhesion on Ac-GXGDSC array (BHK 21 cells): promoted significant cell adhesion
- cell adhesion on Ac-GXGDSC array (HT1080 cells): promoted significant cell adhesion
- cell adhesion on Ac-GXGDSC array (CHO-K1 cells): promoted significant cell adhesion

Substance: GRGDSC (GRGDSC-NH2) [Cys-terminated fibrinogen RGD peptide immobilized on monolayer]
- adhesion of αIIbβ3 CHO K1 cells to monolayer presenting the peptide (αIIbβ3 CHO K1 cells [2]): adhered
- cytoskeletal structure and focal adhesions of adherent cells (αIIbβ3 CHO K1 cells [3]): well-developed cytoskeletal structures and mature focal adhesions along the perimeter

Substance: HHLGGAKQAGDVC (HHLGGAKQAGDVC-NH2) [Cys-terminated fibrinogen γ chain peptide immobilized on monolayer]
- adhesion of αIIbβ3 CHO K1 cells to monolayer presenting the peptide (αIIbβ3 CHO K1 cells [2]): adhered
- cytoskeletal structure and focal adhesions of adherent cells (αIIbβ3 CHO K1 cells [3]): well-developed cytoskeletal structures and mature focal adhesions along the perimeter

Substance: LGGAKQAGDV (not fully specified (C-terminus)) [γ-derived peptide]
- inhibition of A2A9 binding to platelets (platelets [4]): could inhibit the binding of A2A9 to platelets
- less potent in inhibiting PAC-1 binding to αIIbβ3 (αIIbβ3; compared with its inhibition of Fbg binding / RGDS): 2.5 fold
- inhibition of Fbg binding to platelets (platelets [5]): inhibited Fbg binding to platelets with an affinity comparable to that of RGDS

Substance: RGD
- inhibition of A2A9 binding to platelets (platelets [4]): not

Substance: RGDS (synthesized peptide inhibitor)
- inhibition of PAC-1 binding (αIIbβ3): blocked the binding of both PAC-1 and Fbg to platelets with equal potency
- inhibition of Fbg binding to platelets (platelets [5]): blocked the binding of both PAC-1 and Fbg to platelets with equal potency

Substance: cRGDFG
- effect on adhesion of αIIbβ3 CHO K1 cells to monolayer presenting GRGDSC (αIIbβ3 CHO K1 cells [6]): did not interfere with adhesion
- IC50 (αvβ3): 1.6 nM
- affinity for αvβ3 relative to αIIbβ3 integrin (αvβ3): approximately 1,400 fold
- block of attachment of CHO K1 cells to monolayer presenting GRGDSC (CHO K1 cells): could efficiently block the attachment
